Measured values from US8629277B2, “Styrenyl 1,2,4-oxadiazole compounds” (Piramal Enterprises Limited, priority 2010, dated 2014).
Where a name gives a salt, the structure may show the parent alone. Read-outs that look alike come from different tables or passages of the source.

Assays:
[1] = molecular target: T1, Ba/F3 Bcr-Abl/WT (Homo sapiens, UniProt P00519); test: Cell proliferation and cytotoxicity CCK-8 assay; type: cell-based; settings: imatinib sensitive cell line; CCK-8, 72 h; read-out: Inhibitory concentrations (IC50) Ba/F3 Bcr-Abl/WT
T1 construct: fused on or other part: P11274 (Breakpoint cluster region protein)
Description: (§1) Cell Proliferation and Cytotoxicity CCK-8 Assay:
(§2) Cell Counting Kit-8 (CCK-8) assay is a sensitive colorimetric assay for the determination of number of viable cells in cell proliferation and cytotoxicity assays. Cell Counting Kit-8 (CCK-8) utilizes Dojindo's highly water-soluble tetrazolium salt. The amount of the formazan dye generated by dehydrogenases in cells is directly proportional to the number of living cells.
(§3) The cell lines described in Table 1 were used to test the antiproliferative activity of the compounds of the present invention.
(§4) Cells were seeded at a density of ˜5×10^3 per well (0.09 mL) in a transparent 96-well tissue culture plate (NUNC, USA) and allowed to incubate at 37° C., 5% CO2 incubator for 2-6 h. Different concentrations of compounds of the present invention were added to the wells of the culture plate in triplicate. […] Plates were further incubated in an incubator at 37° C. in presence of 5% CO2 for 72 h. 10 μL of the CCK-8 solution was added to each well and plate was incubated for 1-4 h in the incubator. The absorbance was measured at 450 nm using a microplate reader. The percent inhibition and IC50 were calculated in comparison with control values.

[2] = molecular target: Ba/F3 Bcr-Abl/T315I (Homo sapiens, UniProt P00519, T315I, cells depend on it); settings: read-out: Inhibitory concentrations (IC50) Ba/F3 Bcr-Abl/T315I; imatinib resistant cell line; CCK-8, 72 h
Description: as §1, §2, §3, §4

[3] = system: K562; test: Cell proliferation and cytotoxicity CCK-8 assay; type: cell-based, human; settings: imatinib sensitive cell line K562, CCK-8, 72 h, read-out: Inhibitory concentrations (IC50) K562
[4] = system: K562; test: Flow cytometric analysis of apoptosis (PI staining); type: cell-based, human
Description: (§5) Effect of the Compounds of Present Invention in Bcr-Abl Mutated Imatinib Mesylate-Resistant Cell Lines on Cell Cycle and Apoptosis Using Flow Cytometry.
(§6) The assay was carried out as in reference, FEBS Letters, 2007, 581, 7, 1329-1334. […] At the end of incubation, cells were harvested by centrifugation at 1000 rpm for 10 minutes, washed with phosphate buffered saline (PBS) and gradually resuspended in 70% ice-cold ethanol (to facilitate the permeablisation of stains). Cell suspension was stored for a minimum period of 4 h before staining with propidium iodide (PI). Fixed cells were stained with PI (80 μg/mL) in presence of RNase A (50 μg/mL), and read on Becton Dickinson FACS Calibur (USA) for cell cycle analysis.

[5] = system: T315I; test: as above; type: cell-based
Description: as §5, §6

[6] = system: E255V; test: as above; type: cell-based
Description: as §5, §6

[7] = system: Y253; test: as above; type: cell-based
Description: as §5, §6

[8] = system: Ba/F3; test: as above; type: cell-based
Description: as §5, §6

Row | SMILES | GI50 [2] | GI50 [1] | IC50 ([3]; Homo sapiens) | also measured
1 | Oc1ccc(C=Cc2nc(CC3CCN(Cc4ccccc4)CC3)no2)cc1O [Compound of Example 31, 4-{2-[3-(1-Benzyl-piperidin-4-ylmethyl)-[1,2,4]oxadiazol-5-yl]-vinyl}-benzene-1,2-diol] | 11 to 100 µM | 11 to 100 µM | 11 to 100 µM | 
2 | CCCc1noc(C=Cc2ccc(O)c(NS(C)(=O)=O)c2)n1 [Compound of Example 10, N-{2-Hydroxy-5-[2-(3-propyl-[1,2,4]oxadiazol-5-yl)-vinyl]-phenyl}-methanesulfonamide] | 11 to 100 µM | 11 to 100 µM | > 100 µM | 
3 | CCCc1nc(C=Cc2ccc(O)c(N)c2)no1 [Compound of Example 12, 2-Amino-4-[2-(5-propyl-[1,2,4]oxadiazol-3-yl)-vinyl]-phenol] | < 10 µM | 11 to 100 µM | 11 to 100 µM | 
4 | Oc1ccc(C=Cc2nc(C3CC3)no2)cc1O [Compound of Example 37, 4-[2-(3-Cyclopropyl-[1,2,4]oxadiazol-5-yl)-vinyl]-benzene-1,2-diol] | < 10 µM | < 10 µM | < 10 µM | 
5 | Oc1ccc(C=Cc2nc(C3CCCCC3)no2)cc1O [Compound of Example 61, 4-[2-(3-Cyclohexyl-[1,2,4]oxadiazol-5-yl)-vinyl]-benzene-1,2-diol] | < 10 µM | < 10 µM | 11 to 100 µM | 
6 | CN1CCC(c2noc(C=Cc3ccc(O)c(O)c3)n2)CC1 [Compound of Example 20, 4-[2-(3-Piperidin-4,1-methyl-[1,2,4]oxadiazol-5-yl)-vinyl]-benzene-1,2-diol] | 11 to 100 µM | 11 to 100 µM |  | IC50 [3]: 11 to 100 µM
7 | Cc1ccc(NC(=O)c2ccc(CN3CCN(C)CC3)cc2)cc1Nc1nccc(-c2cccnc2)n1 [imatinib mesylate, Imatinib mesylate, reference compound] |  |  |  | % Apoptosis by Flow Cytometry Analysis ([4]; 3X IC50, 96 h time point): 95%; % Apoptosis by Flow Cytometry Analysis ([4]; 5X IC50, 48 h time point): 3.9%; % Apoptosis by Flow Cytometry Analysis ([4]; 5X IC50, 96 h time point): 92.6%; % Apoptosis by Flow Cytometry Analysis ([5]; 3X IC50, 96 h time point): 26.6%; % Apoptosis by Flow Cytometry Analysis ([5]; 5X IC50, 48 h time point): 4.3%; % Apoptosis by Flow Cytometry Analysis ([5]; 5X IC50, 96 h time point): 25.2%; % Apoptosis by Flow Cytometry Analysis ([6]; 3X IC50, 96 h time point): 61%; % Apoptosis by Flow Cytometry Analysis ([6]; 5X IC50, 48 h time point): 96.7%; % Apoptosis by Flow Cytometry Analysis ([6]; 5X IC50, 96 h time point): 98.4%; % Apoptosis by Flow Cytometry Analysis ([7]; 3X IC50, 96 h time point): 85.2%; % Apoptosis by Flow Cytometry Analysis ([7]; 5X IC50, 48 h time point): 78%; % Apoptosis by Flow Cytometry Analysis ([7]; 5X IC50, 96 h time point): 98.2%; % Apoptosis by Flow Cytometry Analysis ([8]; 3X IC50, 96 h time point): 51%; % Apoptosis by Flow Cytometry Analysis ([8]; 5X IC50, 48 h time point): 40.3%; % Apoptosis by Flow Cytometry Analysis ([8]; 5X IC50, 96 h time point): 31%
8 | CCCCCCc1noc(C=Cc2ccc(O)c(O)c2)n1 [Compound of Example 43] | < 10 µM | < 10 µM |  | IC50 [3]: < 10 µM
9 | Oc1ccc(C=Cc2nc(C3CCCCCC3)no2)cc1O [Compound of Example 58, 4-[2-(3-Cycloheptyl-[1,2,4]oxadiazol-5-yl)-vinyl]-benzene-1,2-diol] | < 10 µM | < 10 µM | 11 to 100 µM | 
10 | Oc1ccc(C=Cc2nc(-c3cccnc3)no2)cc1O [Compound of Example 55, 4-[2-(3-Pyridin-3-yl-[1,2,4]oxadiazol-5-yl)-vinyl]-benzene-1,2-diol] | < 10 µM | < 10 µM | 11 to 100 µM | 

Continued, in another order:

Row | GI50 [2] | SMILES | GI50 [1] | IC50 ([3]; Homo sapiens) | also measured
11 | < 10 µM | Oc1ccc(C=Cc2nc(CC3CCCCC3)no2)cc1O [Compound of Example 46, 4-[2-(3-Cyclohexylmethyl-[1,2,4]oxadiazol-5-yl)-vinyl]-benzene-1,2-diol] | < 10 µM | < 10 µM | 
12 | 11 to 100 µM | CN(C)CCN1CCC(Cc2noc(C=Cc3ccc(O)c(O)c3)n2)CC1 [Compound of Example 24, 4-(2-{3-[1-(2-Dimethylamino-ethyl)-piperidin-4-ylmethyl]-[1,2,4]oxadiazol-5-yl}-vinyl)-benzene-1,2-diol] | 11 to 100 µM | 11 to 100 µM | 
13 | 11 to 100 µM | Cc1noc(C=Cc2ccc(O)c(O)c2)n1 [Compound of Example 1, 4-[2-(3-Methyl-[1,2,4]oxadiazol-5-yl)-vinyl]-benzene-1,2-diol] | 11 to 100 µM | 11 to 100 µM | 
14 | < 10 µM | CCCCCCCc1noc(C=Cc2ccc(O)c(O)c2)n1 [Compound of Example 52, 4-[2-(3-Heptyl-[1,2,4]oxadiazol-5-yl)-vinyl]-benzene-1,2-diol] | < 10 µM | < 10 µM | 
15 | < 10 µM | CCCCCCCCCc1noc(C=Cc2ccc(O)c(O)c2)n1 [Compound of Example 34, 4-[2-(3-Nonyl-[1,2,4]oxadiazol-5-yl)-vinyl]-benzene-1,2-diol] | < 10 µM | 11 to 100 µM | 
16 | < 10 µM | CCc1noc(C=Cc2ccc(O)c(O)c2)n1 [Compound of Example 2, 4-[2-(3-Ethyl-[1,2,4]oxadiazol-5-yl)-vinyl]-benzene-1,2-diol] | < 10 µM | < 10 µM | 
17 | 11 to 100 µM | CC(C)N1CCC(Cc2noc(C=Cc3ccc(O)c(O)c3)n2)CC1 [Compound of Example 22, 4-{2-[3-(1-Isopropyl-piperidin-4-ylmethyl)-[1,2,4]oxadiazol-5-yl]-vinyl}-benzene-1,2-diol] | 11 to 100 µM | 11 to 100 µM | 
18 | < 10 µM | CCCCCCCCc1noc(C=Cc2ccc(O)c(O)c2)n1 [Compound of Example 49, 4-[2-(3-Octyl-[1,2,4]oxadiazol-5-yl)-vinyl]-benzene-1,2-diol] | < 10 µM | < 10 µM | 
19 | < 10 µM | CCCCCc1noc(C=Cc2ccc(O)c(O)c2)n1 [Compound of Example 40, 4-[2-(3-Pentyl-[1,2,4]oxadiazol-5-yl)-vinyl]-benzene-1,2-diol] | < 10 µM | < 10 µM | 
